Experimental data published in ChEMBL document CHEMBL1201862, “PubChem BioAssay data set” (2004).
Activity calls are given as the source filed them. No stated cut-off is given here; in the data, actives have a measured IC50 and inactives only a lower limit.

Biological target: Envelope glycoprotein gp160 (Human immunodeficiency virus 1, UniProt Q6QLK5)
Assay: inhibitors of HIV fusion peptide binding, primary screen, biochemical, uHTS, fluorescence dequenching (AID 1986)

Sequence of Envelope glycoprotein gp160 (Q6QLK5 whole entry, the tested form may be a part): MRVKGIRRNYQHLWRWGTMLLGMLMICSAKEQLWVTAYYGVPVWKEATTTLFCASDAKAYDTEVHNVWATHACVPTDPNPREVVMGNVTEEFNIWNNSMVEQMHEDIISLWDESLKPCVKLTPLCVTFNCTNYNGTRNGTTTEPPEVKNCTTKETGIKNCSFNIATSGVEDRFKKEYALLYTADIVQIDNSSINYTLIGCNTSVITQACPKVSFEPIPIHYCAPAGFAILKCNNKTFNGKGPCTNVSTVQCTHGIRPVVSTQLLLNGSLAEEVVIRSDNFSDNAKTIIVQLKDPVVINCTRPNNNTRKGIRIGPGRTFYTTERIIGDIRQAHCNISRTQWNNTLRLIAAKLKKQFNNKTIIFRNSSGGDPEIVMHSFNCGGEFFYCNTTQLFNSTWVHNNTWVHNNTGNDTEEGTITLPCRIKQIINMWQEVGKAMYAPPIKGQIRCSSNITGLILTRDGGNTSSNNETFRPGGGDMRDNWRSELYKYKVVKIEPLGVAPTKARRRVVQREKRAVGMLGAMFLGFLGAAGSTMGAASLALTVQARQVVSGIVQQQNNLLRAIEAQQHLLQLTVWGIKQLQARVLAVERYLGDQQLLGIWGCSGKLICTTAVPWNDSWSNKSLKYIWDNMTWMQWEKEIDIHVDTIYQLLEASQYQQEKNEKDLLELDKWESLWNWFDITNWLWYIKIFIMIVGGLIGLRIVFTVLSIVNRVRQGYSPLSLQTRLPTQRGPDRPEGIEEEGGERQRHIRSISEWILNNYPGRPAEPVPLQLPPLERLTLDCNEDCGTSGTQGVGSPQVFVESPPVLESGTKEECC

COc1ccccc1N1N=C(C(=O)c2ccccc2)C2C(=O)N(c3ccc(Br)cc3)C(=O)C21 (stereo not drawn)
IC50: 14.6 µM (active)

Cc1ccc(NS(=O)(=O)c2ccc(N/N=C/c3ccccc3OCC(=O)O)c([N+](=O)[O-])c2)c(C)c1
IC50: 13.8 µM (active)

COc1cc(/C=C2\S/C(=N\c3ccccc3)N(CCc3c[nH]c4ccccc34)C2=O)ccc1OC(C)C(=O)O (stereo not drawn)
IC50: 16.9 µM (active)
